Among the data in patent publication US20230124361A1, “SMALL MOLECULE STING ANTAGONISTS” (CURADEV PHARMA PVT. LTD., priority 2020, published 2023) are IC50 values, retold here.

T1 sequence (Q86WV6 whole entry R71H/G230A/H232R/R293Q): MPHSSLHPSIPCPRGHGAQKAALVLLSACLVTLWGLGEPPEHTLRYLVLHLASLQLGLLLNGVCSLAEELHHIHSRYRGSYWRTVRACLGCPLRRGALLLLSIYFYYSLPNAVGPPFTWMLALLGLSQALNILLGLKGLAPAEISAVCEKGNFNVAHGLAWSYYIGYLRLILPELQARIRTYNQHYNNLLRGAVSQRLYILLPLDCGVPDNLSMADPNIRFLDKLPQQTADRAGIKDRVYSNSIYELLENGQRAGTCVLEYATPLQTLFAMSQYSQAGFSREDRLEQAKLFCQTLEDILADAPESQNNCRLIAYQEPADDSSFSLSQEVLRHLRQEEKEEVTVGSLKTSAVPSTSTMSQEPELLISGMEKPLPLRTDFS

The test has as its target T1, STING (Homo sapiens, UniProt Q86WV6, G230A/H232R/R293Q/R71H).
T1 construct: host or cells: THP1-Dual cells (human THP-1 monocyte line with Lucia/SEAP reporters)
In words: Reporter gene expression assay in THP1-Dual cells (IRF pathway Lucia luciferase, 2',3'-cGAMP stimulation). The format is cell-based. Particulars: 10 min preincubation, 5 μM 2',3'-cGAMP, 20 hr, IRF reporter QUANTI-Luc, read-out: THP-1 (HAQ) Activity. On the procedure: Reporter Gene Expression Assay in THP-1 Cells
THP1-Dual™ cells (Invivogen) were derived from the human THP-1 monocyte cell line by stable integration of two inducible reporter constructs. As a result, THP1-Dual™ cells allow the simultaneous study of the IRF pathway, by assessing the activity of a secreted luciferase (Lucia) and the NF-κB pathway, by monitoring the activity of secreted SEAP. 5×10^4 THP1-Dual™ cells were seeded in 384-well plates in growth medium and preincubated with novel compounds for 10 minutes followed by stimulation with 5 μM 2′,3′-cGAMP. After 20 hr of stimulation the supernatant was removed and the IRF pathway reporter protein was readily measured in the cell culture supernatant using QUANTI-Luc™ (Invivogen), a luciferase detection reagent on a Spectramax i3X luminometer.
In the tables below, IC50 value ranges for exemplary compounds are given. The IC50 ranges are indicated as “A” for values less than or equal to 1 μM, “B” for values greater than 1 μM and less than or equal to 10 μM, and “C” for values greater than 10 μM.
`O=C(Nc1ccc2c(c1)NCCO2)Nc1ccc2c(c1)N(Cc1ccccc1)C(=O)CS2` [Example 51, 1-(4-benzyl-3-oxo-3,4-dihydro-2H-benzo[b][1, 4]thiazin-6-yl)-3-(3,4-dihydro-2H-benzo[b][1, 4]oxazin-6-yl)urea]: the IC50 lay in the range of 1 to 10 µM.
For the compound `O=C(Nc1ccc(F)cc1)Nc1ccc2c(c1)SCC(=O)N2Cc1ccccc1` [Example 52, 1-(4-benzyl-3-oxo-3,4-dihydro-2H-benzo[b][1, 4]thiazin-7-yl)-3-(4-fluorophenyl) urea], the IC50 fell in the range of 1 to 10 µM.
Consider `Nc1cccc(CN2C(=O)CSc3ccc(NC(=O)Nc4ccc5cc[nH]c5c4)cc32)c1` [Example 53, l-(4-(3-aminobenzyl)-3-oxo-3,4-dihydro-2H-benzo[b][1, 4]thiazin-6-yl)-3-(1H-indol-6-yl)urea], for which the IC50 is more than 10 µM.
For the compound `O=C(Nc1ccc2c(c1)N(Cc1ccccc1)C(=O)CS2)c1ccc2cc[nH]c2c1` [Example 55, N-(4-benzyl-3-oxo-3,4-dihydro-2H-benzo[b][1,4]thiazin-6-yl)-1H-indole-6-carboxamide], the IC50 fell in the range of 1 to 10 µM.
As for `O=C(Nc1ccc2c(c1)N(Cc1ccccc1)CCO2)Nc1ccc2cc[nH]c2c1` [Example 56, 1-(4-benzyl-3,4-dihydro-2H-benzo[b][1, 4]oxazin-6-yl)-3-(1H-indol-6-yl)urea], the IC50 is 1 to 10 µM.
With `O=C(Nc1ccc2c(c1)N(C(=O)c1ccccc1)CCS2)Nc1ccc2cc[nH]c2c1` [Example 57, 1-(4-benzoyl-3,4-dihydro-2H-benzo[b][1, 4]thiazin-6-yl)-3-(1H-indol-6-yl)urea] the figure was more than 10 µM.
In the case of `CN(C(=O)Nc1ccc2c(c1)N(Cc1ccccc1)C(=O)CS2)c1ccc2cc[nH]c2c1` [Example 59, 3-(4-benzyl-3-oxo-3,4-dihydro-2H-benzo[b][1, 4]thiazin-6-yl)-l-(1H-indol-6-yl)-1-methylurea], the IC50 lay within 1 to 10 µM.
For the compound `Cc1cc(CN2C(=O)CSc3ccc(NC(=O)Nc4ccc5cc[nH]c5c4)cc32)ccn1` [Example 60], the IC50 was in the range of 1 to 10 µM.
As to `O=C(Nc1ccc2c(c1)OCCN2Cc1ccccc1)Nc1ccc2cc[nH]c2c1` [Example 62, 1-(4-Benzyl-3,4-dihydro-2H-benzo[b][1,4]oxazin-7-yl)-3-(1H-indol-6-yl)urea], the IC50 was more than 10 µM.
Take `O=C(Nc1ccc2c(c1)SCCN2Cc1ccccc1)Nc1ccc2cc[nH]c2c1` [Example 63, 1-(4-benzyl-3,4-dihydro-2H-benzo[b][1, 4]thiazin-7-yl)-3-(1H-indol-6-yl)urea]: the IC50 is more than 10 µM.
In the case of `O=C(Nc1ccc2c(c1)N(Cc1ccccc1)CCS2)Nc1c[nH]c2ccccc12` [Example 64, 1-(4-benzyl-3,4-dihydro-2H-benzo[b][1, 4]thiazin-6-yl)-3-(1H-indol-3-yl)urea], the IC50 lay in the range of 1 to 10 µM.
`O=C(Nc1ccc2c(c1)N(CC1CC1)CCS2)Nc1ccc2cc[nH]c2c1` [Example 65, 1-(4-(cyclopropyl-methyl)-3,4-dihydro-2H-benzo[b][1, 4]thiazin-6-yl)-3-(1H-indol-6-yl)urea]: the IC50 was not above 1 µM.
For the compound `O=C(Nc1ccc2c(c1)N(Cc1ccncc1)CCS2)Nc1ccc2cc[nH]c2c1` [Example 66, 1-(1H-indol-6-yl)-3-(4-(pyridin-4-ylmethyl)-3,4-dihydro-2H-benzo[b][1, 4]thiazin-6-yl)urea], the IC50 was not above 1 µM.
Regarding `O=C(Nc1ccc2c(c1)N(CC1CCCC1)CCS2)Nc1ccc2cc[nH]c2c1` [Example 67, 1-(4-(cyclopentylmethyl)-3,4-dihydro-2H-benzo[b][1, 4]thiazin-6-yl)-3-(1H-indol-6-yl)urea], the IC50 is not above 1 µM.
Under `O=C(Nc1ccc2c(c1)N(CCN1CCCC1)CCS2)Nc1ccc2cc[nH]c2c1` [Example 68, 1-(1H-indol-6-yl)-3-(4-(2-(pyrrolidin-1-yl)ethyl)-3,4-dihydro-2H-benzo[b][1, 4]thiazin-6-yl)urea] stands 1 to 10 µM; under `O=C(Nc1ccc2c(c1)OCC(=O)N2Cc1ccccc1)Nc1ccc2cc[nH]c2c1` [Example 69, 1-(4-Benzyl-3-oxo-3,4-dihydro-2H-benzo[b][1,4]oxazin-7-yl)-3-(1H-indol-6-yl)urea], not above 1 µM.
As to `O=C(Nc1ccc2c(c1)N(c1ccccc1)CCS2)Nc1ccc2cc[nH]c2c1` [Example 72, 3-(1H-Indol-6-yl)-3-(4-phenyl-3,4-dihydro-2H-benzo[b][1,4]thiazin-6-yl)urea], the IC50 is not above 1 µM.
Regarding `CN1CCN(Cc2ccccc2)c2cc(NC(=O)Nc3ccc4cc[nH]c4c3)ccc21` [Example 73, 1-(4-Benzyl-1-methyl-1,2,3,4-tetrahydroquinoxalin-6-yl)-3-(1H-indol-6-yl)urea], the IC50 fell in the range of 1 to 10 µM.
Take `O=C(Nc1ccc2c(c1)N(Cc1ccccc1)CC2)Nc1ccc2cc[nH]c2c1` [Example 74, 1-(1-Benzylindolin-6-yl)-3-(1H-indol-6-yl)urea]: the IC50 lay in the range of 1 to 10 µM.
Under `O=C(Nc1ccc2c(c1)OCC(=O)N2c1ccccc1)Nc1ccc2cc[nH]c2c1` [Example 75, 1-(1H-Indol-6-yl)-3-(3-oxo-4-phenyl-3,4-dihydro-2H-benzo[b][1,4]oxazin-7-yl)urea] stands 1 to 10 µM; under `NC(=O)CC1Sc2ccc(NC(=O)Nc3ccc4cc[nH]c4c3)cc2N(Cc2ccccc2)C1=O` (stereo not shown) [Example 76, 2-(6-(3-(1H-Indol-6-yl)ureido)-4-benzyl-3-oxo-3,4-dihydro-2H-benzo[b][1,4]thiazin-2-yl)acetamide], 1 to 10 µM.
`N#CCC1Sc2ccc(NC(=O)Nc3ccc4cc[nH]c4c3)cc2N(Cc2ccccc2)C1=O` (stereo not shown) [Example 77]: the IC50 lay in the range of 1 to 10 µM.
As to `C=CCC1COc2ccc(NC(=O)Nc3ccc4cc[nH]c4c3)cc2N1Cc1ccccc1` (stereo not shown) [Example 78, 1-(3-Allyl-4-benzyl-3,4-dihydro-2H-benzo[b][1,4]oxazin-6-yl)-3-(1H-indol-6-yl)urea], the IC50 was not above 1 µM.
Regarding `O=C(Nc1ccc2c(c1)N(Cc1ccccc1)C(CC(O)CO)CO2)Nc1ccc2cc[nH]c2c1` (stereo not shown) [Example 79, 1-(4-Benzyl-3-(2,3-dihydroxypropyl)-3,4-dihydro-2H-benzo[b][1,4]oxazin-6-yl)-3-(1H-indol-6-yl)urea], the IC50 is 1 to 10 µM.
Under `O=C(Nc1ccc2c(c1)N(Cc1ccccc1)C(CCO)CO2)Nc1ccc2cc[nH]c2c1` (stereo not shown) [Example 80, 1-(4-Benzyl-3-(2-hydroxyethyl)-3-,4-dihydro-2H-benzo[b][1,4]oxazin-6-yl)-3-(1H-indol-6-yl)urea] stands 1 to 10 µM; under `N#CC1COc2ccc(NC(=O)Nc3ccc4cc[nH]c4c3)cc2N1Cc1ccccc1` (stereo not shown) [Example 81, 1-(4-Benzyl-3-cyano-3,4-dihydro-2H-benzo[b][1,4]oxazin-6-yl)-3-(1H-indol-6-yl)urea], 1 to 10 µM; under `NCC1COc2ccc(NC(=O)Nc3ccc4cc[nH]c4c3)cc2N1Cc1ccccc1` (stereo not shown) [Example 82], more than 10 µM.
With `NC(=O)C1COc2ccc(NC(=O)Nc3ccc4cc[nH]c4c3)cc2N1Cc1ccccc1` (stereo not shown) [Example 83], the IC50 lay in the range of 1 to 10 µM.
Under `NC(=O)C(c1ccccc1)N1CCOc2ccc(NC(=O)Nc3ccc4cc[nH]c4c3)cc21` (stereo not shown) [Example 84, 2-(6-(3-(1H-Indol-6-yl)ureido)-2,3-dihydro-4H-benzo[b][1,4]oxazin-4-yl)-2-phenylacetamide] stands 1 to 10 µM; under `O=C(Nc1ccc2c(c1)N(C(CO)c1ccccc1)CCO2)Nc1ccc2cc[nH]c2c1` (stereo not shown) [Example 85, 1-(4-(2-Hydroxy-1-phenylethyl)-3,4-dihydro-2H-benzo[b][1,4]oxazin-6-yl)-3-(1H-indol-6-yl)urea], 1 to 10 µM.
With `COC(=O)C(c1ccccc1)N1CCOc2ccc(NC(=O)Nc3ccc4cc[nH]c4c3)cc21` (stereo not shown) [Example 86] the figure was 1 to 10 µM.
Under `CN1C(=O)CSc2ccc(NC(=O)Nc3ccc4cc[nH]c4c3)cc21` [Example 87, 1-(1H-indol-6-yl)-3-(4-methyl-3-oxo-3,4-dihydro-2H-benzo[b][1, 4]thiazin-6-yl)urea] stands 1 to 10 µM.
On to `O=C1COc2cc(NC(=O)Nc3ccc4cc[nH]c4c3)ccc2N1` [Example 88, 1-(1H-indol-6-yl)-3-(3-oxo-3,4-dihydro-2H-benzo[b][1, 4]oxazin-7-yl)urea], for which the IC50 is more than 10 µM.
Under `O=C(Nc1ccc2c(c1)SCC(=O)N2Cc1c(F)cccc1Cl)Nc1ccc2cc[nH]c2c1` [Example 89, 1-(4-(2-chloro-6-fluorobenzyl)-3-oxo-3,4-dihydro-2H-benzo[b][1, 4]thiazin-7-yl)-3-(1H-indol-6-yl)urea] stands not above 1 µM; under `CC1(C)Oc2cc(NC(=O)Nc3ccc4cc[nH]c4c3)ccc2N(Cc2ccccc2)C1=O` [Example 90, 1-(4-benzyl-2,2-dimethyl-3-oxo-3,4-dihydro-2H-benzo[b][1, 4]oxazin-7-yl)-3-(1H-indol-6-yl)urea], 1 to 10 µM; under `Cc1cc2cc[nH]c2cc1NC(=O)Nc1ccc2c(c1)OCC(=O)N2Cc1ccccc1` [Example 91, 1-(4-benzyl-3-oxo-3,4-dihydro-2H-benzo[b][1, 4]oxazin-7-yl)-3-(5-methyl-1H-indol-6-yl)urea], more than 10 µM.
Consider `Cc1cc2ccc(NC(=O)Nc3ccc4c(c3)OCC(=O)N4Cc3ccccc3)cc2[nH]1` [Example 92, 1-(4-benzyl-3-oxo-3,4-dihydro-2H-benzo[b][1, 4]oxazin-7-yl)-3-(2-methyl-1H-indol-6-yl)urea], for which the IC50 was 1 to 10 µM.
